Measured values published in US8158636B2, “Compounds and methods for kinase modulation, and indications therefor” (Plexxikon Inc., priority 2008, dated 2012).

What was measured:
Assay type in all cases: biochemical
Kit = Kit (Homo sapiens, UniProt P10721); assay: Kinase activity assay, Kit; details: Table 1j; read-out: activity toward kinase Kit, IC50
Source text: (§1) Assays for the activity of kinases, including, but not limited to, Fms, Kit, B-Raf, B-Raf V600E, c-Raf-1, and TrkA are known in the art, for example as described in US Patent Publication Number US20070032519 and U.S. patent application Ser. No. 11/473,347 (see also, PCT publication WO2007002433), the disclosures of which are hereby incorporated by reference with respect to such assays.

Fms = Fms (Homo sapiens, UniProt P07333); assay: Kinase activity assay, Fms; details: Table 1h; read-out: activity toward kinase Fms, IC50
Fms, sequence (P07333 20-972): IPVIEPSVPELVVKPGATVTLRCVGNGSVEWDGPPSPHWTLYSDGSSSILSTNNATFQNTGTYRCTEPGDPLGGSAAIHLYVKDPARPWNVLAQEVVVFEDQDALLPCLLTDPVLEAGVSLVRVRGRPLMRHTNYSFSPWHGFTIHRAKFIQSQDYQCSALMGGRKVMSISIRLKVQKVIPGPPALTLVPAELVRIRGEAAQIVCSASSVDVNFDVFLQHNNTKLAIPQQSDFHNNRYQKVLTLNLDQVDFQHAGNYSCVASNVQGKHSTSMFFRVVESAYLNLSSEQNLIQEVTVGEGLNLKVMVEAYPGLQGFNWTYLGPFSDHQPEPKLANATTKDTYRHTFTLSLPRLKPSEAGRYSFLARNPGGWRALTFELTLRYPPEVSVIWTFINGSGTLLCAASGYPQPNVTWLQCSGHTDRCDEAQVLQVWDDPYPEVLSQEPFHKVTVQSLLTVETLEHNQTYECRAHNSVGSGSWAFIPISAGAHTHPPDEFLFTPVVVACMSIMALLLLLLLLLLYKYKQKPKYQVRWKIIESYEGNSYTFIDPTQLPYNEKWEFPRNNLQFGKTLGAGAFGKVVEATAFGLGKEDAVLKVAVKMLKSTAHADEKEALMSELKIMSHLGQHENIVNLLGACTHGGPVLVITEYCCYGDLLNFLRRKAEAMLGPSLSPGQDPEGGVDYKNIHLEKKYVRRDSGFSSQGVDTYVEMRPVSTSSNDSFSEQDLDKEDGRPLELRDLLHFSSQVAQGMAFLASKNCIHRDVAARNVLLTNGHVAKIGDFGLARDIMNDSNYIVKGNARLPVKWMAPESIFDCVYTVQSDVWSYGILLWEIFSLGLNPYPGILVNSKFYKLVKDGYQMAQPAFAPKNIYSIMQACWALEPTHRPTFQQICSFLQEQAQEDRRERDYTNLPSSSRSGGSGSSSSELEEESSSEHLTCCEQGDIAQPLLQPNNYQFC
Source text: as §1

Kdr = Kdr (Homo sapiens, UniProt P35968); assay: Kinase activity assay, Kdr; details: Table 1i; read-out: activity toward kinase Kdr, IC50
Kdr, sequence (P35968 20-1356): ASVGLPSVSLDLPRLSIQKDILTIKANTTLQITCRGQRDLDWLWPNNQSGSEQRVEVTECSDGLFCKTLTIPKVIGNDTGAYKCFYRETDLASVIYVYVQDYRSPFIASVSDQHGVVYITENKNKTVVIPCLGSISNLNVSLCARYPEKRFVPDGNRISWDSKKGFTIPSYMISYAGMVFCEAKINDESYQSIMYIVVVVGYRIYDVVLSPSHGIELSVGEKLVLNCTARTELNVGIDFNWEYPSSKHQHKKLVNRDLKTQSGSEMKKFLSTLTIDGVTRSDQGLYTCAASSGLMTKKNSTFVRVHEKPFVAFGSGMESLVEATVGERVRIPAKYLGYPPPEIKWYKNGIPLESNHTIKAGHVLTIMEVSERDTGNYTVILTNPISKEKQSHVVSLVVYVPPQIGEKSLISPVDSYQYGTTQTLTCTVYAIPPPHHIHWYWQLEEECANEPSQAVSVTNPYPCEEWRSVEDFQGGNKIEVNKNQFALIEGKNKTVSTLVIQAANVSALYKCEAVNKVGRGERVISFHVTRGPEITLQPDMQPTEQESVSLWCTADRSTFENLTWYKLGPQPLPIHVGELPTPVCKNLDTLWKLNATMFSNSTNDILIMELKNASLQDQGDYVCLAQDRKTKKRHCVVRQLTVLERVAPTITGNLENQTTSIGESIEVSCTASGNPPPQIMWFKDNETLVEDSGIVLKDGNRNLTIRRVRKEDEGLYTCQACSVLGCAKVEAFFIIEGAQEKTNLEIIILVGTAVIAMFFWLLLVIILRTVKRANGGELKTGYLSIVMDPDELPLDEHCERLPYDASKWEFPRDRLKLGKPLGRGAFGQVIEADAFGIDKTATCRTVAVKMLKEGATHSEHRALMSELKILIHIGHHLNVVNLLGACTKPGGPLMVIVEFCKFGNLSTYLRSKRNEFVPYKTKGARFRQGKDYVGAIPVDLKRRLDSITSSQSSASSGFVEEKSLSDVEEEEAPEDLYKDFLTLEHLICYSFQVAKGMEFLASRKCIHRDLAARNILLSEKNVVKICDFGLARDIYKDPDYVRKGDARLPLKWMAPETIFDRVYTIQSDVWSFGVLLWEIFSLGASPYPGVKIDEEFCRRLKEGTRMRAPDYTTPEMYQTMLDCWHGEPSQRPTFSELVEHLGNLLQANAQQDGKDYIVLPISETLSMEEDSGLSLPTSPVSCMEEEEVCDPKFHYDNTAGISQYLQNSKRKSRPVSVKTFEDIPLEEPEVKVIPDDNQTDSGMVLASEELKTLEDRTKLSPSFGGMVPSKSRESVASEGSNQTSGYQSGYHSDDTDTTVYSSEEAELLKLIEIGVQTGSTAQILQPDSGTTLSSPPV
Source text: as §1

B-Raf = B-Raf (Homo sapiens, UniProt P15056); assay: Kinase activity assay, B-Raf; details: Table 1b; read-out: activity toward kinase B-Raf, IC50
B-Raf, sequence (P15056 whole entry): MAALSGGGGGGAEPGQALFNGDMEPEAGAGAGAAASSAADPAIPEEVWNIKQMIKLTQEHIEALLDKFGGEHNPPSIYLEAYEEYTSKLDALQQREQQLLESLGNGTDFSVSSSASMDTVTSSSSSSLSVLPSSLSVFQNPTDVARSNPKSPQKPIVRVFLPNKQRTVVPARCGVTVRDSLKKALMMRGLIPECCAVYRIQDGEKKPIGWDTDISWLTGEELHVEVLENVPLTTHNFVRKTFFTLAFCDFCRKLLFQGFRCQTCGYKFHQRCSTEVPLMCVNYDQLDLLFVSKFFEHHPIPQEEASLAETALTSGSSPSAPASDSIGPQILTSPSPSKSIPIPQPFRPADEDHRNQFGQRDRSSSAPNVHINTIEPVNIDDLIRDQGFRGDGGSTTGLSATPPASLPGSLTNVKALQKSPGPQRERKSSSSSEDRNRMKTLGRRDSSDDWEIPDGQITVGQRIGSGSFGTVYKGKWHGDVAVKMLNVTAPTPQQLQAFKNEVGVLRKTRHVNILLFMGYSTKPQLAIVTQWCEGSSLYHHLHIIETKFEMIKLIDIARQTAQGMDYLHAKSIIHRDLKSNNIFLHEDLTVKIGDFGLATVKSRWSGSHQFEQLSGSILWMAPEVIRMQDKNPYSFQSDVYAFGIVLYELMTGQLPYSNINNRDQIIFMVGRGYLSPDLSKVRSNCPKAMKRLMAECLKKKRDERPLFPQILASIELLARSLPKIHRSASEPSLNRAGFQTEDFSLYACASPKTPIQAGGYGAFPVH
Source text: as §1

TrkA = TrkA (Homo sapiens, UniProt P04629); assay: Kinase activity assay, TrkA; details: Table 1m; read-out: activity toward kinase TrkA, IC50
Source text: as §1

Flt-3 = target: T1, Flt-3 (Homo sapiens, UniProt P36888); assay: Kinase activity assay, Flt-3; details: Table 1g; read-out: activity toward kinase Flt-3, IC50
T1 sequence (P36888 27-993): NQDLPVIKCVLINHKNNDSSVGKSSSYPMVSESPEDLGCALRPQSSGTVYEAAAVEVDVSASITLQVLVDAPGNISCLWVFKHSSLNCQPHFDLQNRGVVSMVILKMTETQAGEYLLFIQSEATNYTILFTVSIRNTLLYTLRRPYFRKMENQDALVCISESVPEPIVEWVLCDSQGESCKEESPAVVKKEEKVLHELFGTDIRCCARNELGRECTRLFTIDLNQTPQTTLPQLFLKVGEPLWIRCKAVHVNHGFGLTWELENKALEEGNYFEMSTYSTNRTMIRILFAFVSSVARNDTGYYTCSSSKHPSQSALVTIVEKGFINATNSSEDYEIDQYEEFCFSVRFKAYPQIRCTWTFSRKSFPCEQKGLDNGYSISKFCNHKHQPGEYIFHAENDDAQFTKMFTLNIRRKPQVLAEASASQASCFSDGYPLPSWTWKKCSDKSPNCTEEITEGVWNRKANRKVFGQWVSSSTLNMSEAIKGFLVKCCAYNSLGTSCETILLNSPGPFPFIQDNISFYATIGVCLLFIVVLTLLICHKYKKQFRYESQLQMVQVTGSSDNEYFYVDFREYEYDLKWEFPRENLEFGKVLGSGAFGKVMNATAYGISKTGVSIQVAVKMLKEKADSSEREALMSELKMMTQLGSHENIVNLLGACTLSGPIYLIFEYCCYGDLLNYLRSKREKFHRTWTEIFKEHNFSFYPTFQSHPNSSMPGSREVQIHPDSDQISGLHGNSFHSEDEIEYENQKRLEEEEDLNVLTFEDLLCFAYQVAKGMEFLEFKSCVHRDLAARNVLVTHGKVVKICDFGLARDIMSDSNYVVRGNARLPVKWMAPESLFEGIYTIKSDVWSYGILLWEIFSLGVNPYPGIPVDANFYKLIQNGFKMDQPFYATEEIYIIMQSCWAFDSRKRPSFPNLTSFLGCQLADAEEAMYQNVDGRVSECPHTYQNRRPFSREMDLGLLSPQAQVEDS
Source text: as §1

B-Raf V600E = B-Raf V600E (Homo sapiens, UniProt P15056, V600E); assay: Kinase activity assay, B-Raf V600E; details: Table 1c; read-out: activity toward kinase B-Raf V600E, IC50
B-Raf V600E, sequence (P15056 whole entry V600E): as the sequence (P15056 whole entry) above, with V600E counted along it
Source text: as §1

C-Raf = C-Raf (Homo sapiens, UniProt P04049); assay: Kinase activity assay, C-Raf; details: Table 1d; read-out: activity toward kinase C-Raf, IC50
C-Raf, sequence (P04049 whole entry): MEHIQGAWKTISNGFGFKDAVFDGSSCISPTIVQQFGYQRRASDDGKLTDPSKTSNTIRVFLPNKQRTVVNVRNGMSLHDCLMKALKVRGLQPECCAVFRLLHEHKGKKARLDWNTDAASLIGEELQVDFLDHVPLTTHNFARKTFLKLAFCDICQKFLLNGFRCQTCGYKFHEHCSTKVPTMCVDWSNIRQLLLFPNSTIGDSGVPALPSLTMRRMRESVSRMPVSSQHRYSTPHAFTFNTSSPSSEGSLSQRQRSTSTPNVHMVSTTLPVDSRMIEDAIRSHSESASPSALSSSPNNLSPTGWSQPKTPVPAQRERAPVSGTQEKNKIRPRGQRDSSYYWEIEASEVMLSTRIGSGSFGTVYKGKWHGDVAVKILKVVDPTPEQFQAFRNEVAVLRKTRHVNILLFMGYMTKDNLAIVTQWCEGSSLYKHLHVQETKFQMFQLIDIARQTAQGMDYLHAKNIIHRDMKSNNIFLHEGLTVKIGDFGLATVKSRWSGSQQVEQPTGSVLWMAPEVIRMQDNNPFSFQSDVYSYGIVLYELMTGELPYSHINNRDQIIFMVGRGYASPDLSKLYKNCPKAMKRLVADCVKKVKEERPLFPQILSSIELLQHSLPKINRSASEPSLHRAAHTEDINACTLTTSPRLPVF
Source text: as §1

Src = Src (Homo sapiens, UniProt P12931); assay: Kinase activity assay, Src; details: Table 1k; read-out: activity toward kinase Src, IC50
Source text: as §1

Measured: IC50

Kit, sequence (P10721 26-976): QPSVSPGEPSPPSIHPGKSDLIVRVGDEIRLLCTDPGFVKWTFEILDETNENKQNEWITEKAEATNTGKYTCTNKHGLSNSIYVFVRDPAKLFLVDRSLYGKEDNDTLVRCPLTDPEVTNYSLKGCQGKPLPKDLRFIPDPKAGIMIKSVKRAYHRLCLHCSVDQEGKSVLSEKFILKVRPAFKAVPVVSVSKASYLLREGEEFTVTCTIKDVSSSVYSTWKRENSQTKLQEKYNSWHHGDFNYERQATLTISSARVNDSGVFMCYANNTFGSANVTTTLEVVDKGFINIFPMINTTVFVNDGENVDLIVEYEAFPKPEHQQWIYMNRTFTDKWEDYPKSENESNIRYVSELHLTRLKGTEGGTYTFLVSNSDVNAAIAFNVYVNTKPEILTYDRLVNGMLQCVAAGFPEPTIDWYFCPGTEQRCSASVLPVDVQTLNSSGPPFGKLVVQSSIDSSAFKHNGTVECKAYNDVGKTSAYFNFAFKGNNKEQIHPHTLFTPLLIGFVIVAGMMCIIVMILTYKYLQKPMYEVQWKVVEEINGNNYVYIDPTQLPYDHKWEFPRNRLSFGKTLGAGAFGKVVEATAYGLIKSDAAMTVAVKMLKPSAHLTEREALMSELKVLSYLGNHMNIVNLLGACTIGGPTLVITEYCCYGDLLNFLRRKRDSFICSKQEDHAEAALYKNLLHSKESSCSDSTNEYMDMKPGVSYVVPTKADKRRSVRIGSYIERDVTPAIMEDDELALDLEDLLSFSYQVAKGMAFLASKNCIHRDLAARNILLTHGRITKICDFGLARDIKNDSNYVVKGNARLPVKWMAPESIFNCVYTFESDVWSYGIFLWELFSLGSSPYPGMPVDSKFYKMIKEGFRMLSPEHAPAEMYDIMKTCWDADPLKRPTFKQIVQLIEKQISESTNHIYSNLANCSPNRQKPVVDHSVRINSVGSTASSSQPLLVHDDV

COc1ccc(CNc2ccc(Cc3c[nH]c4ncncc34)c(F)n2)c(OC)n1 [P-0043, (2,6-Dimethoxy-pyridin-3-ylmethyl)-[6-fluoro-5-(7H-pyrrolo[2,3-d]pyrimidin-5-ylmethyl)-pyridin-2-yl]-amine]
≤ 10 µM: Kit | Fms | Kdr | B-Raf

COc1ncc(CNc2ccc(Cc3c[nH]c4ncncc34)c(F)n2)cc1F [P-0010, (5-Fluoro-6-methoxy-pyridin-3-ylmethyl)-[6-fluoro-5-(7H-pyrrolo[2,3-d]pyrimidin-5-ylmethyl)-pyridin-2-yl]-amine]
≤ 10 µM: Fms | TrkA | Flt-3 | Kdr

COc1ncnc2[nH]cc(Cc3cnc(NCc4ccc(C(F)(F)F)nc4)c(F)c3)c12 [P-0103, [3-Fluoro-5-(4-methoxy-7H-pyrrolo[2,3-d]pyrimidin-5-ylmethyl)-pyridin-2-yl]-(6-trifluoromethyl-pyridin-3-ylmethyl)-amine]
not listed: Flt-3 | Src
≤ 10 µM: all other assays above

CS(=O)(=O)c1ccc(F)cc1CNc1ccc(Cc2c[nH]c3ncncc23)c(F)n1 [P-0052, (5-Fluoro-2-methanesulfonyl-benzyl)-[6-fluoro-5-(7H-pyrrolo[2,3-d]pyrimidin-5-ylmethyl)-pyridin-2-yl]-amine]
≤ 10 µM: B-Raf V600E | Fms | C-Raf | TrkA | B-Raf

Fc1nc(NCc2cccnc2OCC(F)(F)F)ccc1Cc1c[nH]c2ncncc12 [P-0051, [6-Fluoro-5-(7H-pyrrolo[2,3-d]pyrimidin-5-ylmethyl)-pyridin-2-yl]-[2-(2,2,2-trifluoro-ethoxy)-pyridin-3-ylmethyl]-amine]
not listed: B-Raf | Flt-3 | Src
≤ 10 µM: all other assays above

COc1ncnc2[nH]cc(Cc3ccc(NCc4ccc(C(F)(F)F)nc4)nc3)c12 [P-0100, [5-(4-Methoxy-7H-pyrrolo[2,3-d]pyrimidin-5-ylmethyl)-pyridin-2-yl]-(6-trifluoromethyl-pyridin-3-ylmethyl)-amine]
not listed: Flt-3 | Src
≤ 10 µM: all other assays above

Fc1nc(NCc2cccnc2OC2CCCC2)ccc1Cc1c[nH]c2ncncc12 [P-0070, (2-Cyclopentyloxy-pyridin-3-ylmethyl)-[6-fluoro-5-(7H-pyrrolo[2,3-d]pyrimidin-5-ylmethyl)-pyridin-2-yl]-amine]
not listed: Flt-3 | Src
≤ 10 µM: all other assays above

c1cnc(OC2CCCC2)c(CNc2ncc(Cc3c[nH]c4ncncc34)cn2)c1 [P-0086, (2-Cyclopentyloxy-pyridin-3-ylmethyl)-[5-(7H-pyrrolo[2,3-d]pyrimidin-5-ylmethyl)-pyrimidin-2-yl]-amine]
not listed: TrkA | Flt-3 | Src
≤ 10 µM: all other assays above

COc1ncnc2[nH]cc(Cc3ccc(NCc4ccccc4Cl)nc3F)c12 [P-0090, (2-Chloro-benzyl)-[6-fluoro-5-(4-methoxy-7H-pyrrolo[2,3-d]pyrimidin-5-ylmethyl)-pyridin-2-yl]-amine]
≤ 10 µM: Kit | Fms | TrkA | Src

CC(C)c1ncc(CNc2ccc(Cc3c[nH]c4ncncc34)c(F)n2)cn1 [P-0079, [6-Fluoro-5-(7H-pyrrolo[2,3-d]pyrimidin-5-ylmethyl)-pyridin-2-yl]-(2-isopropyl-pyrimidin-5-ylmethyl)-amine]
≤ 10 µM: Fms | Src | Kdr

COc1cc(Cc2c[nH]c3ncnc(OC)c23)cnc1NCc1ccc(C(F)(F)F)nc1 [P-0096, [3-Methoxy-5-(4-methoxy-7H-pyrrolo[2,3-d]pyrimidin-5-ylmethyl)-pyridin-2-yl]-(6-trifluoromethyl-pyridin-3-ylmethyl)-amine]
≤ 10 µM: Kit | Fms | C-Raf | Kdr | B-Raf

COc1ccc(CNc2ccc(Cc3c[nH]c4ncncc34)cn2)cn1 [P-0002, (6-Methoxy-pyridin-3-ylmethyl)-[5-(7H-pyrrolo[2,3-d]pyrimidin-5-ylmethyl)-pyridin-2-yl]-amine]
≤ 10 µM: Kit | B-Raf V600E | Fms | Flt-3 | Kdr

FC(F)(F)c1ccc(CNc2ccc(Cc3c[nH]c4ncnc(C5CCCC5)c34)cn2)cn1 [P-0104, [5-(4-Cyclopentyl-7H-pyrrolo[2,3-d]pyrimidin-5-ylmethyl)-pyridin-2-yl]-(6-trifluoromethyl-pyridin-3-ylmethyl)-amine]
≤ 10 µM: Kit | Fms | Flt-3

COc1ccc(CNc2ccc(C(=O)c3c[nH]c4ncncc34)cn2)cn1 [P-0008, {6-[(6-Methoxy-pyridin-3-ylmethyl)-amino]-pyridin-3-yl}-(7H-pyrrolo[2,3-d]pyrimidin-5-yl)-methanone]
≤ 10 µM: Kit | B-Raf V600E | Flt-3 | Kdr

COc1ncnc2[nH]cc(Cc3cnc(NCc4ccc(C(F)(F)F)nc4)nc3)c12 [P-0102, [5-(4-Methoxy-7H-pyrrolo[2,3-d]pyrimidin-5-ylmethyl)-pyrimidin-2-yl]-(6-trifluoromethyl-pyridin-3-ylmethyl)-amine]
not listed: Flt-3 | Src
≤ 10 µM: all other assays above

Fc1nc(NCc2ccc(N3CCCC3)cn2)ccc1Cc1c[nH]c2ncncc12 [P-0089, [6-Fluoro-5-(7H-pyrrolo[2,3-d]pyrimidin-5-ylmethyl)-pyridin-2-yl]-(5-pyrrolidin-1-yl-pyridin-2-ylmethyl)-amine]
≤ 10 µM: Kit | B-Raf V600E | Fms | Src | Kdr
